Source: article PMC5053523, “In Vitro Antibacterial Activity of Rhodanine Derivatives against Pathogenic Clinical Isolates” (PLoS ONE, 2016)
Converted amounts (≈) assume the structure as drawn. Like-named read-outs stand apart in the source and are kept apart here.

Assays:
[1] = system: vancomycin resistant enterococci (VRE); experiment: Broth microdilution MIC50/MIC90, VRE panel; format: cell-based; conditions: Enterococcus, 10 VRE strains
B. cereus = experiment: Broth microdilution MIC/MBC, B. cereus; format: cell-based; conditions: Bacillus cereus; for MBC: read-out: MBC; for MIC: read-out: MIC
Source text: The broth microdilution technique was used, followed by subculturing on agar plates that were rhodanine—free.

B. licheniformis = experiment: Broth microdilution MIC/MBC, B. licheniformis; format: cell-based; conditions: Bacillus licheniformis; for MBC: read-out: MBC; for MIC: read-out: MIC
Bacillus Strains = experiment: Broth microdilution MIC50/MIC90 and MIC range, Bacillus strains panel; format: cell-based, Bacillus spp.; conditions: 10 Bacillus strains
Source text: The broth microdilution technique was used, followed by subculturing on agar plates that were rhodanine—free. […] The MICs reported represent the lowest concentration of each compound necessary to inhibit bacterial growth and the MBCs represent the lowest concentration required to reduce the initial bacterial inoculum by ≥ 99.9%.

Clostridium difficile = experiment: MIC against Clostridium difficile, anaerobic broth dilution; format: cell-based; conditions: Clostridioides difficile
Method in brief: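 Clinical C. difficile isolates grown anaerobically 48 h at 37 °C, suspended to 0.5 McFarland and diluted 1:300 in pre-reduced supplemented Brain Heart Infusion broth. Compounds serially diluted; plates incubated anaerobically at 37 °C for 48 h. MIC = lowest concentration with no visible growth.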

Mycobacterium smegmatis = experiment: Broth microdilution MIC/MBC, Mycobacterium smegmatis; format: cell-based; conditions: Mycolicibacterium smegmatis, ATCC14468, M. Smegmatis ATCC 14468
P. aeruginosa = experiment: Broth microdilution MIC, P. aeruginosa; format: cell-based; conditions: Pseudomonas aeruginosa
Acinetobacter baumannii [2] = experiment: Broth microdilution MIC, Acinetobacter baumannii; format: cell-based
MRSA USA300 = experiment: MIC against MRSA USA300 with and without 4% human serum albumin; format: cell-based, Staphylococcus aureus; conditions: Staphylococcus aureus, read-out: MIC against MRSA USA300
Method in brief: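 MIC measured in tryptic soy broth spiked with 4% HSA and without it, using CLSI broth microdilution on MRSA USA300. Value reported is the lowest concentration preventing bacterial growth.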

Acinetobacter baumannii [3] = experiment: MIC with/without sub-MIC colistin, Acinetobacter baumannii; format: cell-based
Method in brief: (§1)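 Sub-MIC colistin or PMBN added to broth MIC tests of rhodanines and reference antibiotics against Gram-negative strains; AcrAB efflux-deficient E. coli SM1411ΔacrAB also tested.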

Salmonella Typhimurium [4] = experiment: MIC with/without sub-MIC colistin, Salmonella Typhimurium; format: cell-based
Method in brief: as §1

Klebsiella pneumoniae = experiment: MIC with/without sub-MIC colistin, Klebsiella pneumoniae; format: cell-based
Method in brief: as §1

Pseudomonas aeruginosa [5] = experiment: MIC with/without sub-MIC colistin, Pseudomonas aeruginosa; format: cell-based
Method in brief: as §1

Escherichia coli O157:H7 = experiment: MIC with/without PMBN, Escherichia coli O157:H7; format: cell-based
Method in brief: as §1

Salmonella Typhimurium [6] = experiment: MIC with/without PMBN, Salmonella Typhimurium; format: cell-based
Method in brief: as §1

Pseudomonas aeruginosa [7] = experiment: MIC with/without PMBN, Pseudomonas aeruginosa; format: cell-based
Method in brief: as §1

Escherichia coli Δ acrAB = experiment: MIC against E. coli 1411 and AcrAB efflux pump deficient E. coli SM1411Δ acrAB; format: cell-based
Method in brief: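 Gram-negative MICs were determined for rhodanines alongside control antibiotics, each combined with sub-inhibitory colistin or PMBN. Further testing used the efflux-deficient E. coli SM1411ΔacrAB, missing the AcrAB multidrug pump.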

[8] = NRS201, B. cereus NRS 201 NR-2488
[9] = NCIB9375, B. licheniformis Gibson 46 (NCIB 9375) NR-2494
[10] = NRS712, B. licheniformis NRS 712 NR-2499
[11] = Salmonella enterica, ATCC 700720 / TYPHIMURIUM

O=C(O)[C@H](Cc1ccccc1)N1C(=O)/C(=C/c2cccc(-c3ccccc3)c2)SC1=S [Rh 5]
MIC90 ([1]; VRE, read-out: MIC 90): 16 µM (≈ 7.13 µg/mL) | MIC50 ([1]; read-out: MIC 50): 16 µM (≈ 7.13 µg/mL) | MBC (B. cereus; B. cereus BAG1O-2 NR-28582): 4 µM (≈ 1.78 µg/mL) | MIC (B. cereus; B. cereus BAG1O-2 NR-28582): 4 µM (≈ 1.78 µg/mL) | MBC (B. cereus; B. cereus BAG1X1-1 NR-28575): 4 µM (≈ 1.78 µg/mL) | MIC (B. cereus; B. cereus BAG1X1-1 NR-28575): 4 µM (≈ 1.78 µg/mL) | MBC (B. cereus; B. cereus BAG1X2-1 NR-28578): 4 µM (≈ 1.78 µg/mL) | MIC (B. cereus; B. cereus BAG1X2-1 NR-28578): 4 µM (≈ 1.78 µg/mL) | MBC (B. cereus; B. cereus G9241 NR-9564): 8 µM (≈ 3.56 µg/mL) | MIC (B. cereus; B. cereus G9241 NR-9564): 8 µM (≈ 3.56 µg/mL) | MBC (B. cereus; B. cereus VD014 NR-22141): 8 µM (≈ 3.56 µg/mL) | MIC (B. cereus; B. cereus VD014 NR-22141): 4 µM (≈ 1.78 µg/mL) | MBC (B. cereus; B. cereus VD115 NR-22148): 4 µM (≈ 1.78 µg/mL) | MIC (B. cereus; B. cereus VD115 NR-22148): 4 µM (≈ 1.78 µg/mL) | MBC (B. cereus; B. cereus VD148 NR-22150): 4 µM (≈ 1.78 µg/mL) | MIC (B. cereus; B. cereus VD148 NR-22150): 4 µM (≈ 1.78 µg/mL) | MBC (B. cereus; [8]): 4 µM (≈ 1.78 µg/mL) | MIC (B. cereus; [8]): 4 µM (≈ 1.78 µg/mL) | MBC (B. licheniformis; [9]): 8 µM (≈ 3.56 µg/mL) | MIC (B. licheniformis; [9]): 8 µM (≈ 3.56 µg/mL) | MBC (B. licheniformis; [10]): 8 µM (≈ 3.56 µg/mL) | MIC (B. licheniformis; [10]): 8 µM (≈ 3.56 µg/mL) | MIC50 (Bacillus Strains): 4 µM (≈ 1.78 µg/mL) | MIC90 (Bacillus Strains): 8 µM (≈ 3.56 µg/mL) | MIC (Clostridium difficile; C. difficile HM-88): 4 µM (≈ 1.78 µg/mL) | MIC (Clostridium difficile; C. difficile HM-745): 4 µM (≈ 1.78 µg/mL) | MIC (Clostridium difficile; C. difficile HM-746): 2 µM (≈ 0.891 µg/mL) | MIC (Clostridium difficile; C. difficile Isolate-1 NR-13427): 4 µM (≈ 1.78 µg/mL) | MIC (Clostridium difficile; C. difficile Toxigenic Strain P8 NR-32888): 4 µM (≈ 1.78 µg/mL) | MBC (Mycobacterium smegmatis; read-out: MBC): 16 µM (≈ 7.13 µg/mL) | MIC (Mycobacterium smegmatis; read-out: MIC): 16 µM (≈ 7.13 µg/mL) | MIC (P. aeruginosa; ATCC9721): > 128 µM | MIC (P. aeruginosa; ATCC15442): > 128 µM | MIC (Acinetobacter baumannii [2]; ATCC13345): > 128 µM | MIC (Acinetobacter baumannii [2]; ATCC17786): > 128 µM | MIC (MRSA USA300; 24 h, Media TSB + 4% HSA): > 64 µM | MIC (MRSA USA300; Media TSB): 16 µM (≈ 7.13 µg/mL) | MIC (Acinetobacter baumannii [3]; Acinetobacter baumannii ATCC BAA747, colistin (+) […], read-out: MIC): >64 µM | MIC (Acinetobacter baumannii [3]; Acinetobacter baumannii ATCC BAA19606, colistin (+) […], read-out: MIC): >64 µM | MIC (Acinetobacter baumannii [3]; Acinetobacter baumannii, ATCCBAA747): > 128 µM | MIC (Acinetobacter baumannii [3]; Acinetobacter baumannii, ATCCBAA19606): > 128 µM | MIC (Salmonella Typhimurium [4]; Salmonella Typhimurium ATCC 700720, colistin (+) […], read-out: MIC): >64 µM | MIC (Salmonella Typhimurium [4]; [11]): > 128 µM | MIC (Klebsiella pneumoniae; Klebsiella pneumoniae ATCC BAA 2146, colistin (+) […]): >64 µM | MIC (Klebsiella pneumoniae; Klebsiella pneumoniae, BAA2146): > 128 µM | MIC (Pseudomonas aeruginosa [5]; Pseudomonas aeruginosa ATCC 921, colistin (+) […], read-out: MIC): >64 µM | MIC (Pseudomonas aeruginosa [5]; Pseudomonas aeruginosa, ATCC921): > 128 µM | MIC (Escherichia coli O157:H7; Escherichia coli O157:H7 ATCC 35150, PMBN (+) 4 μg/mL, read-out: MIC): 8 µM (≈ 3.56 µg/mL) | MIC (Escherichia coli O157:H7; Escherichia coli O157:H7 ATCC 700728, PMBN (+) 4 μg/mL, read-out: MIC): >64 µM | MIC (Escherichia coli O157:H7; Escherichia coli, ATCC35150): > 256 µM | MIC (Escherichia coli O157:H7; Escherichia coli, ATCC700728): > 128 µM | MIC (Salmonella Typhimurium [6]; Salmonella Typhimurium ATCC 700720, PMBN (+) 4 μg/mL, read-out: MIC): >128 µM | MIC (Salmonella Typhimurium [6]; [11]): > 128 µM | MIC (Pseudomonas aeruginosa [7]; Pseudomonas aeruginosa ATCC 9721, PMBN (+) 4 μg/mL, read-out: MIC): >64 µM | MIC (Pseudomonas aeruginosa [7]; Pseudomonas aeruginosa, ATCC9721): > 128 µM | MIC (Escherichia coli Δ acrAB; E.coli 1411): > 64 µM | MIC (Escherichia coli Δ acrAB; E.coli 1411 SM (Δ acrAB, AcrAB efflux pump deficient)): > 64 µM
